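A five-concentration, 48-hour dose response in 96-well plates underlies each endpoint, interpolated linearly between surrounding concentrations. TGI marks complete inhibition of growth.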 Some results are limits rather than exact numbers.

Assay in all cases: NCI anticancer screen, dose series, 48 h
For experiment [1], the system named is A549 NSCLC.
For experiment [2], the system named is DMS 114 small cell lung.
For experiment [3], the system named is DMS 273 small cell lung.
In experiment [4] the test system is EKVX NSCLC.
The test system of experiment [5] is HL-60(TB) leukemia.
Experiment [6] concerns HOP-18 NSCLC.
In experiment [7] the test system is KM20L2 colon.
For experiment [8], the system named is LOX IMVI melanoma.
In experiment [9] the test system is M19-MEL melanoma.
Experiment [10] concerns MOLT-4 leukemia.
For experiment [11], the system named is NCI-H23 lung.
The test system of experiment [12] is OVCAR-4 ovarian.
Experiment [13] relates to RXF 393 renal.
For experiment [14], the system named is SK-MEL-5 melanoma.
The subject of experiment [15] is SK-OV-3 ovarian.
Experiment [16] has as its system TK-10 renal.
Experiment [17] has as its system COLO 205 colon.
Experiment [18] deals with KM12 colon.
The test system of experiment [19] is MCF7 breast.
Experiment [20] relates to SK-MEL-28 melanoma.

On to `CN1Cc2ccccc2C2(COc3ccccc3C2=O)C1` (stereo not drawn), for which the TGI in [1], in experiment [2], in experiment [3], in [4], in [5] and in experiment [6] was greater than 100 µM throughout. The TGI in [7], in experiment [8], in experiment [9], in experiment [10], in experiment [11] and in experiment [12] was greater than 100 µM throughout. Moreover, the TGI in experiment [13], in experiment [14], in [15] and in experiment [16] was greater than 100 µM in each case.

Take `N/C(=N\N=C/c1c(O)cc(O)cc1O)NO`: the TGI in experiment [1] was greater than 100 µM; in experiment [17], greater than 100 µM; in [2] it was greater than 100 µM; in [3], greater than 31.6 µM; in experiment [4], greater than 94.5 µM; in experiment [5], greater than 76.9 µM. Also, the TGI in experiment [6], in [18], in [7], in experiment [8], in experiment [9] and in [19] was greater than 100 µM throughout. The TGI in [10], in experiment [11], in experiment [12], in experiment [13], in experiment [20] and in experiment [14] was greater than 100 µM throughout. In [15], this compound had a TGI greater than 100 µM.

With `Cc1ccc(N2Cc3c(ccc4ccccc34)OP2(=S)N2CCCC2)cc1` (stereo not drawn), the TGI in experiment [1], in experiment [17], in experiment [3], in experiment [4], in experiment [5] and in experiment [6] was greater than 100 µM throughout. For the same compound, the TGI in experiment [18], in experiment [7], in [8], in [9], in experiment [19] and in experiment [10] was greater than 100 µM in each case. In addition, the TGI in [11], in [12], in [13], in experiment [20], in [14] and in experiment [15] was greater than 100 µM each time.

As to `Cc1cc(C)c(S(=O)(=O)N(CCCCCN)OCCCN)c(C)c1`, the TGI turned out to be 36 µM in experiment [1]; 37.9 µM in experiment [17]; 30.6 µM in [4]; 34.8 µM in [18]; 36.8 µM in [8]; 33.5 µM in experiment [19]. Further, the TGI was determined as 33 µM in experiment [10]; 33.4 µM in experiment [11]; 37.8 µM in experiment [12]; 24.8 µM in [13]; 32.2 µM in experiment [20]; 35.5 µM in experiment [14]. In experiment [16], the TGI worked out at 30.8 µM.

Take `COC1CCC(CO)OO1` (stereo not drawn): the TGI in experiment [17] was greater than 100 µM; in [2], 36.6 µM; in experiment [5], 58 µM; in experiment [18], greater than 100 µM; in experiment [7], greater than 100 µM; in experiment [9], greater than 100 µM. Also, the TGI in experiment [10], in experiment [11], in experiment [12], in experiment [13], in experiment [20] and in experiment [15] was greater than 100 µM each time.

For `CC(=O)c1c(-c2ccco2)c(C#N)c(=S)n(C2OC(CO)C(O)C(O)C2O)c1C` (stereo not drawn), the TGI in [1], in experiment [17], in experiment [4], in experiment [5], in experiment [18] and in experiment [8] was greater than 100 µM in each case. Also, the TGI in experiment [19], in experiment [10], in [11], in [12], in experiment [13] and in experiment [20] was greater than 100 µM each time. Moreover, the TGI in experiment [14], in experiment [15] and in experiment [16] was greater than 100 µM throughout.

The record behind these values is PubChem BioAssay (NCI).
